# Assays:
# [1] = tested on: mouse model of diet-induced obesity (DIO); assay: Long term effect in mice fed with DIO regimen; type: in vivo, male Swiss mice
# Description: Figure 3 Effect of OBE-2008 administered before night phase on food consumption (left) and body weight (right) in mice. Red = control; dark green = dose of 10 mg/kg/day; light green = dose of 25 mg/kg/day. Number of mice per group n = 10. Statistical comparison between control and treated group were conducted by Dunnett’s tests. Asterisks (*) indicate p values versus control. A p value of<0.05 was considered to show a statistically significant difference.
# The anti-obesity effect of OBE lead in a diet induced obesity model (45% kcal from lipids and 20% from proteins, reference 824053 from Special Diet Services, UK) was evaluated following daily oral administration in mice for 63 days. The study involved 3 groups of 10 male Swiss mice; Group 1: water; Group 2: OBE lead at 10 mg/kg/day; Group 3: OBE lead at 25 mg/kg/day. Animal were weighted daily. Food consumption was measured daily for each animal, except during fasted periods. For all groups, the food was given ad libitum. Body weights are given as means ± SEM (Standard Error of the Mean). The effects of test items on body weight and food consumption were expressed as absolute values and compared with those of the vehicle using multiple comparison procedure with a Dunnett’s test in case of significance (P≤0.05).
# [2] = tested on: fasted mice given oral fat overload; assay: Effect on triglycerides absorption in mouse; type: in vivo; settings: for decrease of fatty acids absorption (plasma triglycerides AUC): up to 6 hours, p<0.05
# Description: (§1) Figure 4 The mechanism-based efficacy of OBE-2008 on enteropeptidase was evaluated based on triglycerides (left) and amino acids (right) absorption. Red = control; dark green = dose of 5 mg/kg; light green = dose of 50 mg/kg. Number of mice per group n = 3 (right) for amino acids, and n = 8 (left) for triglycerides. Statistical comparison between control and treated group were conducted by two-sided unpaired Student’s tests. Asterisks (*) indicate p values versus control. A p value of<0.05 was considered to show a statistically significant difference.
# The aim of the study was to evaluate the duration of effect of OBE lead on triglycerides absorption in mice after oral administration. The study involved 3 groups of 8 male animals each. Group 1: water; Group 2: OBE lead at 5 mg/kg; Group 3: OBE lead at 50 mg/kg. On the day of the test, all animals were given an oral fat overload. The preparation to be administered (OBE lead or its vehicle) was diluted at 1/100 in 10 mL of clinoleic acid 20. In all animals, about 60 µL were sampled via retro orbital sinus at time points: before dosing, 1, 2, 3, 5 and 6 hours post-dosing. The blood samples were prepared within 30 minutes of sampling by centrifugation for 10 minutes at 1500 g. All plasma samples were dosed for triglycerides. The effects of test items on triglycerides absorption were conducted by two-side unpaired Student’s test. A p value of<0.05 was considered to show a statistically significant difference.
# [3] = tested on: fasted mice given radiolabeled proteins; assay: Effect on 14C-protein absorption in mouse; type: in vivo, male Swiss mice; settings: 240 minutes, not statistically significant
# Description: as §1
# The aim of the study was to evaluate the duration of effect of OBE lead on absorption of ^14C-proteins after oral administration in mice. Fifteen male Swiss mice were divided in 3 groups; Group 1: water and ^14C-proteins; Group 2: OBE lead 5 mg/Kg and ^14C-proteins; Group 3: OBE lead 50 mg/Kg and ^14C-proteins. A preparation containing 5 ml of Clinoleic 20 (Baxter Ref DDB9500) with 1 g of glucose (Sigma; ref:G8270) and 1 g of casein (Sigma; ref: C3400) was prepared. […] About 4 ml Pico-fluor 40 was added and after shaking, the total radioactivity contained within the different samples was determined by liquid scintillation using a Packard 1900 CA spectrometer equipped with an external standard system. […]
# [4] = Pharmacokinetics in mice, IV and oral; type: in vivo, male Swiss mice
# Description: Figure 5 Pharmacokinetics of OBE-2008 in mice following intravenous (1 mg/kg, dark blue) and oral (10 mg/kg, light blue) dosing. Number of mice per group n = 3.
# This study aimed to determine the fate of OBE lead in mice after intravenous (IV; 1 mg/kg) and oral (PO; 10 mg/kg) administration. Blood was taken from two animals at each sampling time from T = 0 to T = 6 h after IV administration, and from T = 0 to T = 24 h after oral administration. Samples were analyzed for OBE lead using LC/MS/MS methodology. For each IV and PO routes, three male Swiss mice aged 10-weeks were included in the experiment. The animals OBE IV-1, OBE IV-2 and OBE IV-3 were treated at T = 0 with 1 mg/kg of OBE lead using 2 mL/kg. The injection was performed in the jugular vein under isoflurane anaesthesia. The animals OBE PO-1, OBE PO-2 and OBE PO-3 were treated at T = 0 with 10 mg/kg of OBE lead using 5 mL/kg. The solution to be administered was delivered by gavage, using a gastric cannula. About 50–75 µL of blood were sampled from the retro orbital sinus. The blood was immediately centrifuged at 3500 rpm (+4°C) for 5 minutes. Protein precipitation was conducted by adding a volume of 400 µL of acetonitrile to 10 µL of plasma in Teflon vials. After centrifugation, an aliquot of the supernatant (+4°C auto-sampler; injected volume = 10 µL) was immediately analyzed by LC/MS/MS (column: HILIC Silica 5 µM 2.1×150 mm; isocratic elution using an ACN/pH3 buffer (70/30, V/V) eluant containing 1% formic acid; flow rate = 0.25 mL/min. The MS system operated in the ESI mode, and the ionization source was heated at 350°C). Chromatographic peaks areas were than calculated and plotted against time.
structure (smiles),measurement,setting,value
CC(=O)N[C@@H](C)C(=O)N[C@@H](Cc1ccccc1)C(=O)N[C@@H](CCCCN)B1O[C@@H]2C[C@@H]3C[C@@H](C3(C)C)[C@]2(C)O1 [OBE-2008],side effects such as steatorrhea or diarrhea,[1]; long-term oral treatment,no side effects
same,reduction of weight gain relative to control group,"[1]; oral 10 mg/kg daily, up to 9 weeks",6%
same,reduction of weight gain relative to control group,"[1]; oral 25 mg/kg daily, up to 9 weeks",10%
same,effect on food consumption,"[1]; oral daily 10 and 25 mg/kg, up to 9 weeks, food ad libitum",no effect
same,maximum level of triglycerides in plasma after 1 hour vs control,[2]; 5 mg/kg and 50 mg/kg oral,substantially lower than in the control group
same,decrease of fatty acids absorption (plasma triglycerides AUC),[2]; 5 mg/kg oral,33%
same,decrease of fatty acids absorption (plasma triglycerides AUC),[2]; 50 mg/kg oral,32%
same,decrease of total protein absorption (AUC),[3]; 5 mg/kg oral,17%
same,decrease of total protein absorption (AUC),[3]; 50 mg/kg oral,22%
same,detectability in plasma,[4]; intravenous 1 mg/kg,undetectable after 2 hours
same,plasma half-life,[4]; intravenous 1 mg/kg,minutes
same,calculated bioavailability,[4]; oral 10 mg/kg vs intravenous 1 mg/kg,2–3%

# From paper PMC3504148, “Enteropeptidase: A Gene Associated with a Starvation Human Phenotype and a Novel Target for Obesity Treatment” (PLoS ONE, 2012)
